Results taken from patent US8133849B2, “Herbicidal compounds” (Syngenta Limited, priority 2007, dated 2012).

Legend:
Assay in all cases: Example B2 herbicidal action, post-emergence, pots in glasshouse, damage score 0-10
Assay type in all cases: in vivo
Settings in all cases: application post-emergence, rate 1000 g/ha, evaluated after 13 days
Amaranthus retroflexus = system: Amaranthus retroflexus
Summary of the method: (§1)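 Pot-grown plants were sprayed post-emergence at 8 days with active ingredient in aqueous spray derived from acetone/water (50:50) containing 0.5% Tween 20. Glasshouse conditions were 24/16° C day/night, 14 h light and 65% humidity, with watering twice daily. Damage was scored 13 days after spraying.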

Echinochloa crus-galli = system: Echinochloa crus-galli
Summary of the method: as §1

Ipomea hederaceae = system: Ipomea hederaceae
Summary of the method: as §1

Setaria faberi = system: Setaria faberi
Summary of the method: as §1

Solanum nigrum = system: Solanum nigrum
Summary of the method: as §1

Compound: CC(C)C(=O)OC1=C(c2cc(I)ccc2Cl)S(=O)(=O)N(CC(F)F)c2nccnc21 [Compound C54]
- AMARE damage score (10=total damage to plant; 0=no damage to plant) (Amaranthus retroflexus): 6
- ECHCG damage score (10=total damage to plant; 0=no damage to plant) (Echinochloa crus-galli): 3
- IPOHE damage score (10=total damage to plant; 0=no damage to plant) (Ipomea hederaceae): 8
- SETFA damage score (10=total damage to plant; 0=no damage to plant) (Setaria faberi): 2
- SOLNI damage score (10=total damage to plant; 0=no damage to plant) (Solanum nigrum): 8

Compound: O=S1(=O)C(c2c(C(F)(F)F)ccc(Cl)c2Cl)=C(O)c2nccnc2N1CC(F)F [Compound D57]
- AMARE damage score (10=total damage to plant; 0=no damage to plant) (Amaranthus retroflexus): 10
- ECHCG damage score (10=total damage to plant; 0=no damage to plant) (Echinochloa crus-galli): 9
- IPOHE damage score (10=total damage to plant; 0=no damage to plant) (Ipomea hederaceae): 7
- SETFA damage score (10=total damage to plant; 0=no damage to plant) (Setaria faberi): 10
- SOLNI damage score (10=total damage to plant; 0=no damage to plant) (Solanum nigrum): 10

Compound: CCN1c2nccnc2C(OC(=O)C(C)(C)C)=C(c2ccc(Cl)cc2C(F)(F)F)S1(=O)=O [Compound C15]
- AMARE damage score (10=total damage to plant; 0=no damage to plant) (Amaranthus retroflexus): 9
- ECHCG damage score (10=total damage to plant; 0=no damage to plant) (Echinochloa crus-galli): 7
- IPOHE damage score (10=total damage to plant; 0=no damage to plant) (Ipomea hederaceae): 8
- SETFA damage score (10=total damage to plant; 0=no damage to plant) (Setaria faberi): 2
- SOLNI damage score (10=total damage to plant; 0=no damage to plant) (Solanum nigrum): 9

Compound: CC(C)C(=O)OC1=C(c2ccc(C(F)(F)F)cc2C(F)(F)F)S(=O)(=O)N(CC(F)F)c2nccnc21 [Compound C127]
- AMARE damage score (10=total damage to plant; 0=no damage to plant) (Amaranthus retroflexus): 8
- ECHCG damage score (10=total damage to plant; 0=no damage to plant) (Echinochloa crus-galli): 4
- IPOHE damage score (10=total damage to plant; 0=no damage to plant) (Ipomea hederaceae): 8
- SETFA damage score (10=total damage to plant; 0=no damage to plant) (Setaria faberi): 2
- SOLNI damage score (10=total damage to plant; 0=no damage to plant) (Solanum nigrum): 10

Compound: CCN1c2nccnc2C(O)=C(c2ccc(Cl)c(Cl)c2)S1(=O)=O [Compound D8]
- AMARE damage score (10=total damage to plant; 0=no damage to plant) (Amaranthus retroflexus): 9
- ECHCG damage score (10=total damage to plant; 0=no damage to plant) (Echinochloa crus-galli): 0
- IPOHE damage score (10=total damage to plant; 0=no damage to plant) (Ipomea hederaceae): 0
- SETFA damage score (10=total damage to plant; 0=no damage to plant) (Setaria faberi): 0
- SOLNI damage score (10=total damage to plant; 0=no damage to plant) (Solanum nigrum): 2

Compound: COc1ccc(Cl)c(C2=C(OC(=O)C(C)(C)C)c3nccnc3N(CC(F)F)S2(=O)=O)c1F [Compound C144]
- AMARE damage score (10=total damage to plant; 0=no damage to plant) (Amaranthus retroflexus): 0
- ECHCG damage score (10=total damage to plant; 0=no damage to plant) (Echinochloa crus-galli): 0
- IPOHE damage score (10=total damage to plant; 0=no damage to plant) (Ipomea hederaceae): 7
- SETFA damage score (10=total damage to plant; 0=no damage to plant) (Setaria faberi): 0
- SOLNI damage score (10=total damage to plant; 0=no damage to plant) (Solanum nigrum): 4

Compound: CC(C)(C)C(=O)OC1=C(c2cc(F)c(Cl)cc2Cl)S(=O)(=O)N(CC(F)F)c2nccnc21 [Compound C47]
- AMARE damage score (10=total damage to plant; 0=no damage to plant) (Amaranthus retroflexus): 10
- ECHCG damage score (10=total damage to plant; 0=no damage to plant) (Echinochloa crus-galli): 4
- IPOHE damage score (10=total damage to plant; 0=no damage to plant) (Ipomea hederaceae): 7
- SETFA damage score (10=total damage to plant; 0=no damage to plant) (Setaria faberi): 7
- SOLNI damage score (10=total damage to plant; 0=no damage to plant) (Solanum nigrum): 10

Compound: CC(C)(C)C(=O)OC1=C(c2c(Cl)ccc(Cl)c2C(F)(F)F)S(=O)(=O)N(CC(F)F)c2nccnc21 [Compound C52]
- AMARE damage score (10=total damage to plant; 0=no damage to plant) (Amaranthus retroflexus): 9
- ECHCG damage score (10=total damage to plant; 0=no damage to plant) (Echinochloa crus-galli): 7
- IPOHE damage score (10=total damage to plant; 0=no damage to plant) (Ipomea hederaceae): 10
- SETFA damage score (10=total damage to plant; 0=no damage to plant) (Setaria faberi): 8
- SOLNI damage score (10=total damage to plant; 0=no damage to plant) (Solanum nigrum): 8

Compound: CCOC(=O)OC1=C(c2cc(Cl)ccc2C(F)(F)F)S(=O)(=O)N(CC(F)F)c2nccnc21 [Compound C120]
- AMARE damage score (10=total damage to plant; 0=no damage to plant) (Amaranthus retroflexus): 9
- ECHCG damage score (10=total damage to plant; 0=no damage to plant) (Echinochloa crus-galli): 8
- IPOHE damage score (10=total damage to plant; 0=no damage to plant) (Ipomea hederaceae): 10
- SETFA damage score (10=total damage to plant; 0=no damage to plant) (Setaria faberi): 9
- SOLNI damage score (10=total damage to plant; 0=no damage to plant) (Solanum nigrum): 9

Compound: CC(C)C(=O)OC1=C(c2ccc(Cl)cc2Cl)S(=O)(=O)N(CCF)c2nccnc21 [Compound C58, isobutyric acid 3-(2,4-dichloro-phenyl)-1-(2-fluoroethyl)-2,2-dioxo-1,2-dihydro-2-λ-6-thia-1,5,8-triaza-naphthalen-4-yl ester]
- AMARE damage score (10=total damage to plant; 0=no damage to plant) (Amaranthus retroflexus): 10
- ECHCG damage score (10=total damage to plant; 0=no damage to plant) (Echinochloa crus-galli): 6
- IPOHE damage score (10=total damage to plant; 0=no damage to plant) (Ipomea hederaceae): 9
- SETFA damage score (10=total damage to plant; 0=no damage to plant) (Setaria faberi): 4
- SOLNI damage score (10=total damage to plant; 0=no damage to plant) (Solanum nigrum): 9

Compound: CCN1c2nccnc2C(OC(=O)C(C)(C)C)=C(c2cc(C(F)(F)F)ccc2Br)S1(=O)=O [Compound C69]
- AMARE damage score (10=total damage to plant; 0=no damage to plant) (Amaranthus retroflexus): 4
- ECHCG damage score (10=total damage to plant; 0=no damage to plant) (Echinochloa crus-galli): 2
- IPOHE damage score (10=total damage to plant; 0=no damage to plant) (Ipomea hederaceae): 7
- SETFA damage score (10=total damage to plant; 0=no damage to plant) (Setaria faberi): 0
- SOLNI damage score (10=total damage to plant; 0=no damage to plant) (Solanum nigrum): 6

Compound: CC(C)(C)C(=O)OC1=C(c2ccc(I)cc2Cl)S(=O)(=O)N(CC(F)F)c2nccnc21 [Compound C141]
- AMARE damage score (10=total damage to plant; 0=no damage to plant) (Amaranthus retroflexus): 7
- ECHCG damage score (10=total damage to plant; 0=no damage to plant) (Echinochloa crus-galli): 2
- IPOHE damage score (10=total damage to plant; 0=no damage to plant) (Ipomea hederaceae): 7
- SETFA damage score (10=total damage to plant; 0=no damage to plant) (Setaria faberi): 0
- SOLNI damage score (10=total damage to plant; 0=no damage to plant) (Solanum nigrum): 8

Compound: CS(=O)(=O)OC1=C(c2cc(C(F)(F)F)ccc2Cl)S(=O)(=O)N(CC(F)F)c2nccnc21 [Compound C95]
- AMARE damage score (10=total damage to plant; 0=no damage to plant) (Amaranthus retroflexus): 7
- ECHCG damage score (10=total damage to plant; 0=no damage to plant) (Echinochloa crus-galli): 6
- IPOHE damage score (10=total damage to plant; 0=no damage to plant) (Ipomea hederaceae): 10
- SETFA damage score (10=total damage to plant; 0=no damage to plant) (Setaria faberi): 3
- SOLNI damage score (10=total damage to plant; 0=no damage to plant) (Solanum nigrum): 9

Compound: COCN1c2nccnc2C(OC(=O)C(C)C)=C(c2ccc(Cl)cc2Cl)S1(=O)=O [Compound C27]
- AMARE damage score (10=total damage to plant; 0=no damage to plant) (Amaranthus retroflexus): 7
- ECHCG damage score (10=total damage to plant; 0=no damage to plant) (Echinochloa crus-galli): 3
- IPOHE damage score (10=total damage to plant; 0=no damage to plant) (Ipomea hederaceae): 6
- SETFA damage score (10=total damage to plant; 0=no damage to plant) (Setaria faberi): 6
- SOLNI damage score (10=total damage to plant; 0=no damage to plant) (Solanum nigrum): 9

Compound: O=S1(=O)C(c2cc(F)c(Cl)cc2Cl)=C(O)c2nccnc2N1CC(F)F [Compound D25]
- AMARE damage score (10=total damage to plant; 0=no damage to plant) (Amaranthus retroflexus): 10
- ECHCG damage score (10=total damage to plant; 0=no damage to plant) (Echinochloa crus-galli): 3
- IPOHE damage score (10=total damage to plant; 0=no damage to plant) (Ipomea hederaceae): 9
- SETFA damage score (10=total damage to plant; 0=no damage to plant) (Setaria faberi): 4
- SOLNI damage score (10=total damage to plant; 0=no damage to plant) (Solanum nigrum): 10

Compound: CCN1c2nccnc2C(O)=C(c2cc(C(F)(F)F)ccc2Cl)S1(=O)=O [Compound D15]
- AMARE damage score (10=total damage to plant; 0=no damage to plant) (Amaranthus retroflexus): 9
- ECHCG damage score (10=total damage to plant; 0=no damage to plant) (Echinochloa crus-galli): 2
- IPOHE damage score (10=total damage to plant; 0=no damage to plant) (Ipomea hederaceae): 9
- SETFA damage score (10=total damage to plant; 0=no damage to plant) (Setaria faberi): 4
- SOLNI damage score (10=total damage to plant; 0=no damage to plant) (Solanum nigrum): 9

Compound: CC(C)(C)C(=O)OC1=C(c2ccc(Cl)cc2Cl)S(=O)(=O)N(CC(F)(F)F)c2nccnc21 [Compound C104]
- AMARE damage score (10=total damage to plant; 0=no damage to plant) (Amaranthus retroflexus): 10
- ECHCG damage score (10=total damage to plant; 0=no damage to plant) (Echinochloa crus-galli): 6
- IPOHE damage score (10=total damage to plant; 0=no damage to plant) (Ipomea hederaceae): 9
- SETFA damage score (10=total damage to plant; 0=no damage to plant) (Setaria faberi): 3
- SOLNI damage score (10=total damage to plant; 0=no damage to plant) (Solanum nigrum): 10

Compound: CC(C)(C)C(=O)OC1=C(c2c(F)ccc(Br)c2Cl)S(=O)(=O)N(CC(F)F)c2nccnc21 [Compound C35]
- AMARE damage score (10=total damage to plant; 0=no damage to plant) (Amaranthus retroflexus): 10
- ECHCG damage score (10=total damage to plant; 0=no damage to plant) (Echinochloa crus-galli): 7
- IPOHE damage score (10=total damage to plant; 0=no damage to plant) (Ipomea hederaceae): 10
- SETFA damage score (10=total damage to plant; 0=no damage to plant) (Setaria faberi): 7
- SOLNI damage score (10=total damage to plant; 0=no damage to plant) (Solanum nigrum): 10

Compound: C=CCN1c2nccnc2C(O)=C(c2cc(Cl)ccc2C(F)(F)F)S1(=O)=O [Compound D54]
- AMARE damage score (10=total damage to plant; 0=no damage to plant) (Amaranthus retroflexus): 2
- ECHCG damage score (10=total damage to plant; 0=no damage to plant) (Echinochloa crus-galli): 3
- IPOHE damage score (10=total damage to plant; 0=no damage to plant) (Ipomea hederaceae): 4
- SETFA damage score (10=total damage to plant; 0=no damage to plant) (Setaria faberi): 3
- SOLNI damage score (10=total damage to plant; 0=no damage to plant) (Solanum nigrum): 7

Compound: CC(C)C(=O)OC1=C(c2c(F)cccc2C(F)(F)F)S(=O)(=O)N(CC(F)F)c2nccnc21 [Compound C77]
- AMARE damage score (10=total damage to plant; 0=no damage to plant) (Amaranthus retroflexus): 10
- ECHCG damage score (10=total damage to plant; 0=no damage to plant) (Echinochloa crus-galli): 9
- IPOHE damage score (10=total damage to plant; 0=no damage to plant) (Ipomea hederaceae): 10
- SETFA damage score (10=total damage to plant; 0=no damage to plant) (Setaria faberi): 9
- SOLNI damage score (10=total damage to plant; 0=no damage to plant) (Solanum nigrum): 10

Compound: CCN1c2nccnc2C(OC(=O)C(C)C)=C(c2ccc(Cl)c(Cl)c2)S1(=O)=O [Compound C26]
- AMARE damage score (10=total damage to plant; 0=no damage to plant) (Amaranthus retroflexus): 9
- ECHCG damage score (10=total damage to plant; 0=no damage to plant) (Echinochloa crus-galli): 0
- IPOHE damage score (10=total damage to plant; 0=no damage to plant) (Ipomea hederaceae): 0
- SETFA damage score (10=total damage to plant; 0=no damage to plant) (Setaria faberi): 0
- SOLNI damage score (10=total damage to plant; 0=no damage to plant) (Solanum nigrum): 0

Compound: CCN1c2nccnc2C(O)=C(c2cccc(C(F)(F)F)c2Cl)S1(=O)=O [Compound D38]
- AMARE damage score (10=total damage to plant; 0=no damage to plant) (Amaranthus retroflexus): 9
- ECHCG damage score (10=total damage to plant; 0=no damage to plant) (Echinochloa crus-galli): 1
- IPOHE damage score (10=total damage to plant; 0=no damage to plant) (Ipomea hederaceae): 5
- SETFA damage score (10=total damage to plant; 0=no damage to plant) (Setaria faberi): 0
- SOLNI damage score (10=total damage to plant; 0=no damage to plant) (Solanum nigrum): 8
